Broadly, the IC50 is the concentration that gives 50% inhibition.

The first assay deals with TNFα (Homo sapiens, UniProt P01375). Put plainly: TNF induced HEK-Blue assay (NF-kB-driven secreted alkaline phosphatase reporter). The class given is cell-based. The conditions noted are these: TNF induced HEK-Blue assay IC50 value, TNFα 0.5 ng/mL, HEK-Blue-CD40L cells, 18 h. The method in brief: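 HEK-Blue-CD40L cells (NF-kB-driven SEAP reporter), 20,000/well, added after 30 min pre-incubation of compound (0.004–25 μM final) with TNFα 0.5 ng/mL final at 37 °C; 18 h incubation. SEAP read with QUANTI-Blue at 620 nm; IC50 from 4-parameter logistic fit, normalized to unstimulated and stimulated DMSO controls.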
TNFα, sequence (P01375 77-233 limits assumed): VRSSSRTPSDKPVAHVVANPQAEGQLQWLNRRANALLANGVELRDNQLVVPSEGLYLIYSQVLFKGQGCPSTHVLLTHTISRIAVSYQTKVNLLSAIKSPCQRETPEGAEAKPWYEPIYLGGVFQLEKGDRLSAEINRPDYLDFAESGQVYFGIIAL
Turning to `CC(=O)N1CCC[C@H]([C@H](C)Nc2c(Cl)cnc3ccc(-c4cnc(C(C)(C)O)nc4)cc23)C1` [Example 107, 1-((S)-3-((S)-1-((3-chloro-6-(2-(2-hydroxypropan-2-yl)pyrimidin-5-yl)quinolin-4-yl)amino)ethyl)piperidin-1-yl)ethanone], the IC50 is < 1000 nM.
As to `CCC(Nc1c(Cl)cnc2ccc(-c3cnc(C(C)(C)O)nc3)cc12)c1ccccc1F` (racemic) [Example 190, 2-(5-(3-chloro-4-((1-(2-fluorophenyl)propyl)amino)quinolin-6-yl)pyrimidin-2-yl)propan-2-ol], the IC50 was < 1000 nM.
Same read-out and setting: in the case of `CC(Nc1c(Cl)cnc2cc(F)c(-c3cnc(C(C)(C)O)nc3)cc12)c1ccccc1F` (stereo not shown) [Example 249, 2-(5-(3-chloro-7-fluoro-4-((1-(2-fluorophenyl)ethyl)amino)quinolin-6-yl)pyrimidin-2-yl)propan-2-ol] it was 1000 to 10000 nM; in that of `CC(Nc1c(Cl)cnc2c(F)cc(-c3cnc(C(C)(C)O)nc3)cc12)c1ccccc1F` (racemic) [Example 247, 2-(5-(3-chloro-8-fluoro-4-((1-(2-fluorophenyl)ethyl)amino)quinolin-6-yl)pyrimidin-2-yl)propan-2-ol], < 1000 nM.

The same assay, now with this note: TNFα 0.5 ng/mL, HEK-Blue-CD40L cells, 18 h; read-out: TNF induced HEK-Blue assay IC50 value.
As to `Cc1nc2ccc(-c3cnc(C(C)(C)O)nc3)cc2c(N[C@H](C)c2cc(-c3cn[nH]c3)ccc2F)c1Cl` [Example 335, (R)-2-(5-(3-chloro-4-((1-(2-fluoro-5-(1H-pyrazol-4-yl)phenyl)ethyl)amino)-2-methylquinolin-6-yl)pyrimidin-2-yl) propan-2-ol], the IC50 is < 1000 nM.
The same measure, in the same setting: the figure for `COc1nc2ccc(-c3cnc(C(C)(C)O)nc3)cc2c(Nc2cc(C)ccc2C)c1C` [Example 180, 2-(5-(4-(2,5-dimethylphenylamino)-2-methoxy-3-methylquinolin-6-yl)pyrimidin-2-yl)propan-2-ol] is 10000 to 25000 nM; for `C[C@@H](Nc1c(Cl)cnc2ccc(-c3cnc(C(C)(C)O)nc3)cc12)c1cc(-c2ccnc(N)c2)ccc1F` [Example 350, (R)-2-(5-(4-((1-(5-(2-aminopyridin-4-yl)-2-fluorophenyl)ethyl)amino)-3-chloroquinolin-6-yl)pyrimidin-2-yl)propan-2-ol] it is < 1000 nM.
For the compound `C=CC(=O)N(C)c1ncc(-c2ccc3ncc(Cl)c(N[C@H](C)c4ccccc4F)c3c2)cn1` [Example 124, (R)—N-(5-(3-chloro-4-((1-(2-fluorophenyl)ethyl)amino)quinolin-6-yl)pyrimidin-2-yl)-N-methylacrylamide], the IC50 is < 1000 nM.
Same read-out and setting: the figure for `C[C@@H](Nc1c(Cl)cnc2ccc(-c3ccc(C4(N)CC(O)C4)cc3)cc12)c1ccccc1F` (mixture of isomers) [Example 119, (R)-3-amino-3-(4-(3-chloro-4-((1-(2-fluorophenyl)ethyl)amino)quinolin-6-yl)phenyl)cyclobutan-1-ol] is < 1000 nM.
Same read-out and setting: in the case of `CC(Nc1c(Cl)cnc2ccc(-c3ccc(C(C)(C)O)cc3)cc12)c1cnccn1` (racemic) [Example 198, 2-(4-(3-chloro-4-((1-(pyrazin-2-yl)ethyl)amino)quinolin-6-yl)phenyl)propan-2-ol] it was < 1000 nM; in that of `CC(C)(O)c1ncc(-c2nc3c(N[C@@H](c4cc(C(N)=O)ccc4F)C(F)F)c(Cl)cnc3cc2F)cn1` [Example 493, (S)-3-(1-((3-chloro-7-fluoro-6-(2-(2-hydroxypropan-2-yl)pyrimidin-5-yl)-1,5-naphthyridin-4-yl)amino)-2,2-difluoroethyl)-4-fluorobenzamide], < 1000 nM.
The same measure, in the same setting: the figure for `C[C@@H](Nc1c(Cl)cnc2ccc(-c3cnc(C(C)(C)O)nc3)cc12)c1cc(C=NO)ccc1F` [Example 424, (R)-3-(1-((3-chloro-6-(2-(2-hydroxypropan-2-yl)pyrimidin-5-yl)quinolin-4-yl)amino)ethyl)-4-fluorobenzaldehyde oxime] is < 1000 nM; for `CNC(=O)CN1CCN(c2ncc(-c3ccc4ncc(Cl)c(N[C@H](C)c5ccccc5F)c4c3)cn2)CC1` [Example 89, (R)-2-(4-(5-(3-chloro-4-((1-(2-fluorophenyl)ethyl)amino)quinolin-6-yl)pyrimidin-2-yl)piperazin-1-yl)-N-methylacetamide] it is < 1000 nM.
Consider `Cc1nc2ccc(-c3cnc(C(C)(C)O)nc3)cc2c(NC(C)c2cc(F)ccc2F)c1Cl` (racemic) [Example 317, 2-(5-(3-chloro-4-((1-(2,5-difluorophenyl)ethyl)amino)-2-methylquinolin-6-yl)pyrimidin-2-yl)propan-2-ol], for which the IC50 was < 1000 nM.
Take `C[C@@H](Nc1c(Cl)cnc2ccc(-c3cnc(C(C)(C)O)nc3)cc12)c1cc(-n2cnnc2)ccc1F` [Example 371, (R)-2-(5-(3-chloro-4-((1-(2-fluoro-5-(4H-1,2,4-triazol-4-yl)phenyl)ethyl)amino)quinolin-6-yl)pyrimidin-2-yl)propan-2-ol]: the IC50 is < 1000 nM.
On the same count and under the same terms, in the case of `Fc1ccc(-c2cncnc2)cc1[C@H](Nc1c(Cl)cnc2ccccc12)C(F)F` [Example 559, (S)-3-chloro-N-(2,2-difluoro-1-(2-fluoro-5-(pyrimidin-5-yl)phenyl)ethyl)quinolin-4-amine] it was < 1000 nM; in that of `C[C@@H](Nc1c(Cl)cnc2ccccc12)c1cc(-c2ccccc2)ccc1F` [Example 459, (R)-3-chloro-N-(1-(4-fluoro-[1,1′-biphenyl]-3-yl)ethyl)quinolin-4-amine], < 1000 nM.
The same measure, in the same setting: the figure for `OC[C@@H]1CN(c2ncc(-c3ccc4ncc(Cl)c(N[C@@H](c5ccccc5F)C(F)F)c4c3)cn2)CCN1` [Example 86, ((S)-4-(5-(3-chloro-4-(((S)-2,2-difluoro-1-(2-fluorophenyl)ethyl)amino)quinolin-6-yl)pyrimidin-2-yl)piperazin-2-yl)methanol] is < 1000 nM; for `CNC(=O)c1nc2ccc(-c3ccc(C#N)nc3)cc2c(Nc2cc(C)ccc2C)c1Cl` [Example 33, 3-chloro-6-(6-cyanopyridin-3-yl)-4-((2,5-dimethylphenyl)amino)-N-methylquinoline-2-carboxamide] it is 1000 to 10000 nM; for `CC(Nc1c(Cl)cnc2ccc(-c3cnc(C(C)(C)O)nc3)cc12)[C@H]1CCCNC1` (single isomer, unassigned) [Example 96] it is 10000 to 25000 nM.
With `C=Cc1cccc([C@@H](C)Nc2c(Cl)c(C)nc3cc(F)c(-c4cnc(C(C)(C)O)nc4)nc23)c1` [Example 571, (R)-2-(5-(7-chloro-3-fluoro-6-methyl-8-((1-(3-vinylphenyl)ethyl)amino)-1,5-naphthyridin-2-yl)pyrimidin-2-yl)propan-2-ol], the IC50 was < 1000 nM.
On the same count and under the same terms, the figure for `C[C@@H](Nc1c(Cl)cnc2ccccc12)c1cc(-c2ccccc2C#N)ccc1F` [Example 552, (R)-3′-(1-((3-chloroquinolin-4-yl)amino)ethyl)-4′-fluoro-[1,1′-biphenyl]-2-carbonitrile] is < 1000 nM.
In the case of `CC(C)(O)c1ncc(-c2ccc3ncc(Cl)c(NC4(c5ccccc5)CC4)c3c2)cn1` [Example 161, 2-(5-(3-chloro-4-((1-phenylcyclopropyl)amino)quinolin-6-yl)pyrimidin-2-yl)propan-2-ol], the IC50 fell in the range of 1000 to 10000 nM.
Same read-out and setting: in the case of `Cc1nc2ccc(-c3ccc(C(C)(C)O)cc3)cc2c(NC(C)c2ccccc2F)c1Cl` (racemic) [Example 308, 2-(4-(3-chloro-4-((1-(2-fluorophenyl)ethyl)amino)-2-methylquinolin-6-yl)phenyl) propan-2-ol] it was < 1000 nM.
Still for that read-out and setting: the figure for `CC(C)(O)c1ncc(-c2nc3c(N[C@@H](c4cc(CO)ccc4F)C(F)F)c(Cl)cnc3cc2F)cn1` [Example 501, (S)-2-(5-(7-chloro-8-((2,2-difluoro-1-(2-fluoro-5-(hydroxymethyl)phenyl)ethyl)amino)-3-fluoro-1,5-naphthyridin-2-yl)pyrimidin-2-yl)propan-2-ol] is < 1000 nM; for `CC(C)(O)c1ncc(-c2cc3c(N[C@H]4C[C@@H]4c4ccccc4)c(Cl)cnc3cc2F)cn1` (mixture of isomers) [Example 271, 2-(5-(3-chloro-7-fluoro-4-(((1S,2R)-2-phenylcyclopropyl)amino)quinolin-6-yl)pyrimidin-2-yl)propan-2-ol] it is 1000 to 10000 nM.
Regarding `Cc1nc2cc(F)c(-c3cnc(C(C)(C)O)nc3)cc2c(N[C@H](C)c2cc(C(N)=O)ccc2F)c1Cl` [Example 393, (R)-3-(1-((3-chloro-7-fluoro-6-(2-(2-hydroxypropan-2-yl)pyrimidin-5-yl)-2-methylquinolin-4-yl)amino)ethyl)-4-fluorobenzamide], the IC50 was < 1000 nM.
On to `Cc1nc2cc(F)c(-c3cnc(C(C)(C)O)nc3)nc2c(N[C@H](C)c2ccccc2)c1Cl` [Example 213, (R)-2-(5-(7-chloro-3-fluoro-6-methyl-8-((1-phenylethyl)amino)-1,5-naphthyridin-2-yl)pyrimidin-2-yl)propan-2-ol], for which the IC50 is < 1000 nM.
The same measure, in the same setting: in the case of `CC(Nc1c(Cl)cnc2ccc(-c3ccc(C(C)(C)O)cc3)cc12)c1cn(C)cn1` (racemic) [Example 205, 2-(4-(3-chloro-4-((1-(1-methyl-1H-imidazol-4-yl)ethyl)amino)quinolin-6-yl)phenyl)propan-2-ol] it was < 1000 nM.
Still for that read-out and setting: in the case of `C[C@@H](Nc1c(Cl)cnc2ccc(-c3cnc(C(C)(C)O)nc3)cc12)c1cc(C(C)(C)O)ccc1F` [Example 410, (R)-2-(5-(3-chloro-4-((1-(2-fluoro-5-(2-hydroxypropan-2-yl)phenyl)ethyl)amino)quinolin-6-yl)pyrimidin-2-yl)propan-2-ol] it was 1000 to 10000 nM.
`C[C@@H](Nc1c(Cl)cnc2cc(F)c(-c3cnc(C(C)(C)O)nc3)nc12)c1cc(C(O)CO)ccc1F` (stereo partly drawn) [Example 504, 1-(3-((R)-1-((3-chloro-7-fluoro-6-(2-(2-hydroxypropan-2-yl)pyrimidin-5-yl)-1,5-naphthyridin-4-yl)amino)ethyl)-4-fluorophenyl)ethane-1,2-diol]: the IC50 was < 1000 nM.

(Values after US10865191B2, “Heterocyclic compounds useful as modulators of TNF alpha” (BRISTOL-MYERS SQUIBB COMPANY, priority 2015, dated 2020).)
